Experimental data reported in the supplement of paper PMC10331698.
± gives the standard deviation of the averaged measurements.

Legend:
Assay in all cases: level (log10 ratio to DMSO vehicle control); higher = higher biomarker level / cell amount than vehicle control
Settings in all cases: in DMSO
[1] = compound: O=S(=O)(O)CCC(F)(F)C(F)(F)C(F)(F)C(F)(F)F [4:2 Fluorotelomer sulfonic acid]
Protocol: (§1)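 BioMAP Diversity Plus panel of 12 human primary cell co-culture systems (3C, 4H, LPS, SAg, BT, BF4T, BE3C, CASM3C, HDF3CGF, KF3CT, MyoF, Mphg). Compounds were added 1 h before stimulation and left for 24 h (MyoF 48 h; BT 72 h for soluble read-outs or 6 d for IgG). Biomarkers were read by ELISA, cytotoxicity by SRB, PBMC viability and proliferation by Alamar Blue. Each well value was divided by the mean of 8 DMSO control wells on the same plate and log10 transformed; duplicate blinded samples were tested at 4 concentrations.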

[2] = compound: O=C(Cl)C(F)(F)C(F)(F)C(F)(F)C(=O)Cl [Hexafluoroglutaryl chloride]
Protocol: as §1

[3] = compound: OC(C(F)(F)F)(C(F)(F)F)C(O)(C(F)(F)F)C(F)(F)F [Perfluoropinacol]
Protocol: as §1

[4] = compound: O=S(=O)(OCC(F)(F)F)C(F)(F)C(F)(F)C(F)(F)C(F)(F)F [2,2,2-Trifluoroethyl perfluorobutanesulfonate]
Protocol: as §1

[5] = compound: O=C(CC(=O)C(F)(F)C(F)(F)C(F)(F)F)c1cccs1 [(Perfluorobutyryl)-2-thenoylmethane]
Protocol: as §1

[6] = compound: C=C(C)C(=O)OCC(F)(F)C(F)(F)C(F)(F)F [2,2,3,3,4,4,4-Heptafluorobutyl methacrylate]
Protocol: as §1

[7] = compound: O=C(O)C(F)(F)C(F)(F)C(=O)O [Tetrafluorosuccinic acid]
Protocol: as §1

Test System	level (log10) ([1]; 6700 nM)	level (log10) ([1]; 20000 nM)	level (log10) ([1]; 60000 nM)	level (log10) ([2]; 6700 nM)	level (log10) ([2]; 20000 nM)	level (log10) ([2]; 60000 nM)	level (log10) ([3]; 6700 nM)	level (log10) ([3]; 20000 nM)	level (log10) ([4]; 6700 nM)	level (log10) ([4]; 20000 nM)	level (log10) ([4]; 60000 nM)	level (log10) ([5]; 6700 nM)	level (log10) ([5]; 20000 nM)	level (log10) ([6]; 6700 nM)	level (log10) ([6]; 20000 nM)	level (log10) ([6]; 60000 nM)	level (log10) ([7]; 6700 nM)	level (log10) ([7]; 20000 nM)	level (log10) ([7]; 60000 nM)
BF4T:CXCL8/IL-8	-0.001 ± 0.052	0.0065 ± 0.016	0.001 ± 0.033	0.045 ± 0.086	0.037 ± 0.072	0.048 ± 0.089	0.081 ± 0.024	0.0865 ± 0.032	0.0295 ± 0.0064	0.017	0.0385 ± 0.044	0.0325 ± 0.028	0.114 ± 0.0092	0.044 ± 0.047	0.0155 ± 0.073	0.037 ± 0.037	0.0235 ± 0.0064	0.016 ± 0.038	0.029 ± 0.023
BF4T:IL-1alpha	-0.0025 ± 0.015	-0.013 ± 0.0028	0.0135 ± 0.029	-0.014 ± 0.04	-0.015 ± 0.018	0.0015 ± 0.0064	0.0025 ± 0.012	-0.025 ± 0.0057	0.0195 ± 0.023	0.0085 ± 0.026	0.0075 ± 0.015	-0.041	-0.0615 ± 0.011	-0.005 ± 0.014	-0.009 ± 0.0014	0.002 ± 0.025	0.023 ± 0.02	0.0145 ± 0.025	0.0335 ± 0.016
BF4T:Keratin 8/18	0.0015 ± 0.005	-0.0195 ± 0.025	0.017 ± 0.024	-0.0245 ± 0.053	-0.018 ± 0.03	-0.0345 ± 0.035	-0.013 ± 0.0099	-0.036 ± 0.0071	0.002 ± 0.016	-0.0025 ± 0.016	-0.0335 ± 0.0078	-0.0735 ± 0.0035	-0.127 ± 0.016	-0.013 ± 0.035	-0.029 ± 0.014	-0.0245 ± 0.039	0.013 ± 0.018	-0.0115 ± 0.037	-0.0165 ± 0.03
BF4T:MMP-1	-0.002 ± 0.017	-0.0115 ± 0.005	0.0055 ± 0.0092	-0.0125 ± 0.018	0.003 ± 0.0028	0 ± 0.017	-0.0245 ± 0.00071	-0.0165 ± 0.0035	-0.0035 ± 0.015	-0.0005 ± 0.015	-0.0095 ± 0.0021	-0.02 ± 0.011	-0.0785 ± 0.0092	0.009 ± 0.018	-0.001 ± 0.013	0.009 ± 0.0057	0.016 ± 0.02	0.008 ± 0.013	0.0295 ± 0.0035
BF4T:MMP-3	-0.031 ± 0.013	-0.0235 ± 0.018	0.0295 ± 0.069	-0.004 ± 0.011	-0.0145 ± 0.0064	0.019 ± 0.0057	-0.013 ± 0.04	-0.008 ± 0.0057	-0.012 ± 0.0085	-0.0055 ± 0.0035	0.02 ± 0.037	-0.0475 ± 0.026	-0.0985 ± 0.032	-0.009 ± 0.03	-0.011 ± 0.0085	0.006 ± 0.0085	0.0285 ± 0.012	-0.008 ± 0.028	0.012 ± 0.0057
BF4T:MMP-9	-0.023 ± 0.023	-0.02 ± 0.0028	0.0205 ± 0.033	-0.0075 ± 0.025	-0.0125 ± 0.025	0.005 ± 0.0071	-0.0245 ± 0.00071	-0.0515 ± 0.0092	-0.017 ± 0.0028	-0.0145 ± 0.029	-0.0225 ± 0.0064	-0.0225 ± 0.0021	-0.146 ± 0.039	-0.015 ± 0.025	-0.0265 ± 0.0078	0.0195 ± 0.049	-0.003 ± 0.021	-0.0075 ± 0.022	-0.014 ± 0.0085
BF4T:PAI-I	-0.0055 ± 0.005	-0.007 ± 0.0071	-0.0035 ± 0.015	-0.01 ± 0.014	-0.002 ± 0.0042	-0.0005 ± 0.005	-0.0315 ± 0.0035	-0.0845 ± 0.0064	-0.0035 ± 0.0035	-0.0075 ± 0.00071	-0.0025 ± 0.0021	-0.0085 ± 0.0092	-0.125 ± 0.014	-0.0035 ± 0.00071	0.0015 ± 0.0064	0.007	-0.0075 ± 0.012	-0.0025 ± 0.018	0.0035 ± 0.00071
BF4T:SRB	-0.012 ± 0.0042	-0.0085 ± 0.0064	-0.0075 ± 0.0064	-0.015 ± 0.0099	-0.0115 ± 0.0035	-0.0195 ± 0.0035	-0.0135 ± 0.0021	-0.031 ± 0.0014	0.005 ± 0.0042	0.002 ± 0.0028	0.0055 ± 0.0021	-0.023 ± 0.0085	-0.057 ± 0.0042	-0.003 ± 0.0042	-0.011 ± 0.0071	0.0315 ± 0.039	-0.0035 ± 0.0021	-0.005 ± 0.0028	-0.0025 ± 0.00071
BF4T:tPA	-0.0295 ± 0.023	-0.0295 ± 0.03	0.0055 ± 0.06	0.0095 ± 0.0078	-0.019 ± 0.0099	-0.0095 ± 0.019	-0.028 ± 0.011	0.032 ± 0.014	0.0025 ± 0.0021	0.011 ± 0.023	0.015 ± 0.0028	-0.122 ± 0.02	-0.068 ± 0.018	-0.0165 ± 0.032	0.0025 ± 0.00071	0.012 ± 0.023	-0.0145 ± 0.0078	-0.006 ± 0.034	-0.025 ± 0.013
BF4T:uPA	-0.013 ± 0.02	-0.013 ± 0.0085	0.0105 ± 0.0078	-0.02 ± 0.048	-0.004 ± 0.028	-0.008 ± 0.013	-0.0305 ± 0.019	-0.0365 ± 0.0064	-0.0085 ± 0.018	-0.008 ± 0.035	-0.015 ± 0.023	-0.0235 ± 0.00071	-0.0535 ± 0.047	-0.01	-0.017 ± 0.017	-0.007 ± 0.0085	-0.004 ± 0.0014	-0.0185 ± 0.0064	-0.0095 ± 0.0092
BT:B cell Proliferation	0.0295 ± 0.047	0.042 ± 0.034	0.0225 ± 0.0078	0.01	-0.024 ± 0.0057	-0.0095 ± 0.026	-0.0065 ± 0.0064	-0.085 ± 0.034	0.019 ± 0.0042	0.0295 ± 0.019	0.024 ± 0.023	-0.0105 ± 0.025	-0.122 ± 0.036	-0.0305 ± 0.076	-0.02 ± 0.086	-0.058 ± 0.011	-0.0055 ± 0.035	0.0075 ± 0.019	0.0285 ± 0.00071
BT:PBMC Cytotoxicity	0.0075 ± 0.023	0 ± 0.0014	0.0435 ± 0.03	-0.0035 ± 0.039	-0.019 ± 0.04	-0.022 ± 0.016	0.011 ± 0.017	-0.0095 ± 0.023	0.0225 ± 0.022	0.0235 ± 0.056	0.053 ± 0.062	0.0005 ± 0.025	-0.0515 ± 0.037	0.0065 ± 0.035	0.005 ± 0.03	0.004 ± 0.055	0.0305 ± 0.012	0.026 ± 0.0042	0.024 ± 0.014
BT:Secreted IgG	0.006 ± 0.052	0.021 ± 0.061	0.0055 ± 0.054	0.012 ± 0.024	0.0205 ± 0.012	0.0115 ± 0.0035	-0.322 ± 0.02	-1.36	-0.0615 ± 0.043	-0.0585 ± 0.016	-0.162 ± 0.058	-0.009 ± 0.018	-0.855 ± 0.016	0.0145 ± 0.036	0.029 ± 0.018	0.024 ± 0.03	-0.0035 ± 0.033	0.0055 ± 0.011	0.0155 ± 0.0035
BT:sIL-2	-0.009 ± 0.059	-0.044 ± 0.037	0.038 ± 0.02	-0.0205 ± 0.07	-0.001 ± 0.1	0.0415 ± 0.066	0.107 ± 0.059	0.0335 ± 0.071	0.015 ± 0.0042	0.116 ± 0.068	0.102 ± 0.014	0.0385 ± 0.067	-0.001 ± 0.0014	0.0115 ± 0.035	0.026 ± 0.082	-0.0115 ± 0.042	-0.0195 ± 0.035	0.03 ± 0.083	0.0825 ± 0.13
BT:sIL-6	0.047 ± 0.041	-0.0105 ± 0.011	-0.052 ± 0.13	-0.0085 ± 0.042	0.008 ± 0.055	-0.033 ± 0.023	-0.073 ± 0.051	-0.0655 ± 0.019	0.089 ± 0.0085	0.158 ± 0.02	0.231 ± 0.033	-0.009 ± 0.024	-0.265 ± 0.067	0.035 ± 0.0085	-0.0015 ± 0.028	-0.015 ± 0.041	-0.0225 ± 0.0064	-0.018 ± 0.025	-0.033 ± 0.011
